Measurements reported in a melting point compilation (Tetko et al.; mined from patent text by program, amines drawn as free bases though some values may be those of a salt).

| Compound | melting point |
| --- | --- |
| N#CN=C(Nc1cccnc1)NC(NC(=O)c1ccccc1)C(Cl)(Cl)Cl (configuration not stated) | 133 to 135 °C |
| CC(C)(C)Oc1ccc2c(c1)Oc1ccccc1S2(=O)=O | 108 to 110 °C |
| COc1ccc(CC(=O)NCC(OC)OC)cc1OC | 60 to 63 °C |
| Cc1cc(Cl)cc(C(=O)NCC2(C)CC2)c1NC(=O)c1cc(C(F)(F)F)nn1-c1ncccc1Cl | 210 °C |
| COc1cc(O)cc2c1C(Br)=C(c1ccc(O)cc1)C2=O | 210 °C |
| O=C(OCC1OC(n2ccc(=O)[nH]c2=O)C(O)C1OC(=O)c1ccccc1)c1ccccc1 (configuration not stated) | 111 to 114 °C |
| CCNc1nc(C)cc(O)n1 | 176 °C |
| NCCOc1cccc2c1ccn2S(=O)(=O)c1ccccc1 | 71 to 73 °C |
| CC(C)c1cc(CC#N)c(C(C)C)cc1C#N | 88 to 89 °C |
| C=C1CSC(=C(C#N)n2ccnc2)S1 | 116 °C |
| COC(=O)c1sc(C(C)(C)C)cc1NC(=O)Nc1ccc(F)cc1 | 160 to 162 °C |
| O=c1[nH]c2c(c3nc(-c4ccccn4)nn13)CN(Cc1ccccc1)CC2 | 290 °C |
| O=C(O)C1=Cc2cc(Cl)c(Oc3ccc(Cl)c(F)c3)cc2OC1C(F)(F)F (configuration not stated) | 207 °C |
| CCC(=O)c1c(C)cc(NC(C)(C)C)nc1NC(C)(C)C | 102 to 103 °C |
| CCN(C)c1ccc(C(=O)c2ccc(N(C)CC)cc2)cc1 | 122 to 124 °C |
| O=C(c1ccc(S(=O)(=O)c2ccc3cc(Cl)ccc3c2)cc1)N1CCN(c2ccncc2)CC1 | 267 to 269 °C |
| CCCNC(=O)Cc1ccc2ccn(C3CCN(CCc4ccc(F)cc4)CC3)c2c1 | 131 to 132 °C |
| N#Cc1cccc2c1CC(=NN)c1cc(F)ccc1S2 | 220 to 222 °C |
| Cc1ncc([N+](=O)[O-])cc1C(=O)NC(=O)C(C)(C)C | 138 to 139 °C |
| Nc1ncnc(N2CCc3ccccc3CC2)c1[N+](=O)[O-] | > 200 °C |
| COc1cc2c(cc1OCc1ccccc1)CC(C(=O)O)NC2 (racemic) | 230 to 240 °C |
| Cc1ccc(C)c2c1C(=O)N(CCl)S2(=O)=O | 107 to 108 °C |
| Nc1sc(-c2ccccc2)c(CN(C2CCCCC2)C2CCCCC2)c1C(=O)c1ccc(Cl)cc1 | 201 to 203 °C |
| CNC(=O)Nc1cc(OC)c(-c2ccc(C[C@H](NC(=O)c3c(Cl)cccc3Cl)C(=O)O)cc2)c(OC)c1 | 206 to 207 °C |
| Cc1ccc(CN2CCN(C3=NC4(C=CC(=O)C(Cl)=C4)C(c4ccccc4)=C3)CC2)cc1 (configuration not stated) | 161 °C |

| Compound | melting point |
| --- | --- |
| S=[PH2]CCC(c1ccccc1)(c1ccccc1)c1ccccc1 | 88 °C |
| CCCCCCC(=O)Oc1cc(-c2nc3ccccc3[nH]c2=O)cc([N+](=O)[O-])c1OC(=O)CCCCCC | 186 to 188 °C |
| Cn1c(=O)oc2cc3c(cc21)OCC31C(=O)N(Cc2ccc(C(F)(F)F)o2)c2ccccc21 (configuration not stated) | 198 to 199 °C |
| CC(=O)c1cc(CS(C)(=O)=O)ccc1O | 142 to 144 °C |
| O=C1c2ccccc2C(=O)N1C(Cc1ccccc1)C[PH](=O)O (configuration not stated) | 127 to 130 °C |
| CC(C)(C)c1cc(SCCc2n[nH]c(=S)o2)cc(C(C)(C)C)c1O | 124 °C |
| CC(C)(CO)NC(=O)c1cccc(-c2cccc3cc(Cc4cc(F)cc(Cl)c4)sc23)c1 | 149 to 150 °C |
| CSCCC(=O)Nc1cc(-c2c(-c3ccc(F)c(C)c3)nc3cccnn23)ccn1 | 158 to 159 °C |
| CCOC(=O)c1cc(=O)c2cccc(NC(=O)c3ccc4c(c3)CC(COCc3ccccc3)O4)c2o1 (configuration not stated) | 166 to 168 °C |
| Cc1ccc(O)c2c1C(=O)C(=O)N2Cc1ccccc1 | 255 to 262 °C |
| CCCCN(Cc1ccc(-c2ccccc2-c2nc(=O)o[nH]2)cc1)c1ncccc1C(=O)OCC | 146 to 147 °C |
| Cc1cc(-c2cc(C(F)(F)F)n3ncc(C(=O)Nc4cccc(S(C)(=O)=O)c4)c3n2)ccc1C(F)(F)F | 233 °C |
| O=C(O)c1ccc(C(=O)Nc2cc3c4c(c2)CCCC4CCC3)nc1 | 252 to 253 °C |
| NC(=O)N(O)CC=Cc1cccc(F)c1Sc1ccc(F)cc1 | 127 to 128 °C |
| COc1nnc(Cl)c2c1CCCC2 | 117 to 119 °C |
| Oc1ccc(Br)c2c1CCCC2 | 83 to 85 °C |
| COc1ccc(CC(=O)c2ccc(OC)cc2OC)cc1 | 78.5 to 79.5 °C |
| COc1ccc(CC2(C)CN(C(c3ccccc3)c3ccccc3)CCN2)cc1OC (configuration not stated) | 123 °C |
| CC(C)NCc1ccc(COc2cccc3c2CN(C2CCC(=O)NC2=O)C3=O)cc1 (configuration not stated) | 165 to 167 °C |
| CC(C)Oc1ccc(-c2nn(C(C)c3oc4cccc(F)c4c(=O)c3-c3cccc(F)c3)c3ncnc(N)c23)cc1F (configuration not stated) | 228 to 230 °C |
| COc1cc(OCc2cccc([N+](=O)[O-])c2)ccc1C(C)=O | 111 to 114 °C |
| O=C(O)c1ccccc1-c1nc2cc(-c3ccccc3)ccc2s1 | 177 to 178 °C |
| Cc1c(NCCCN2CCN(c3ccccc3O)CC2)n(C)c(=O)n(C)c1=O | 203 to 205 °C |
| FC(F)(F)c1ccc(C=Cc2nc(CCl)cs2)cc1 | 93 to 95 °C |
| CCn1cc(C(=O)O)c(=O)c2cc(F)c(N3CCCC(CN)C3)nc21 (configuration not stated) | 120 to 122 °C |

| Compound | melting point |
| --- | --- |
| O=C(O)Cc1cc(C(=O)c2ccccc2)cc(Cl)c1O | 131 °C |
| Cc1cc(C)c(C(=O)C(F)(F)F)[nH]1 | 80 °C |
| CC(C(=O)O)N1CCC(C)(CS)C1=O (configuration not stated) | 132 to 133 °C |
| C=CCOC(=O)Nc1sc(-c2cccc(Cl)c2)cc1C(=O)OC | 149 to 150 °C |
| O=C(CCSCCC(=O)Nc1ccc(Nc2ccccc2)cc1)Nc1ccc(Nc2ccccc2)cc1 | 199 to 203 °C |
| CCOc1ccc(N)cc1OC | 54 to 56 °C |
| CN(C)c1ccc(C(=CC=CC2N(C)c3ccccc3C2(C)C)c2ccc(N(C)C)cc2)cc1 (configuration not stated) | 182 to 183 °C |
| COc1ccc(Cn2nnc(C3=C(O)c4ccccc4S(=O)(=O)N3C)n2)cc1 | 178 to 181 °C |
| Cc1ccc(P(C)(C)=O)cc1 | 90 to 92 °C |
| Cc1ccc(C)n1-c1ccc(C(=O)N(C)C)cc1 | 102 to 104 °C |
| COc1cc(C(=O)NC2CCN(C)CC2)ccc1Nc1ncc2c(n1)N(C1CCCC1)CC(F)(F)C(=O)N2C | 241 to 243 °C |
| CCCCCCCCCCCCCCCCCCOc1cc(OCCCOc2ccc(S(C)(=O)=O)cc2)cc(N(CC(=O)OC)CC(=O)OC)c1 | 70 to 72 °C |
| CCOc1ccc(-c2nc(CCl)cs2)cc1OCC | 81.5 to 82.3 °C |
| O=C(O)Cn1c(=S)sc2ccccc21 | 187 to 189 °C |
| CCc1ccccc1-c1nc2c3ccccc3ccn2c1N=Cc1ccc(C)cc1 | 158 to 160 °C |
| COCc1c(CNS(=O)(=O)c2cccc(Cl)c2)nn(-c2ccc(Cl)cc2Cl)c1-c1ccc(Cl)cc1 | 154 °C |
| Cc1cccc2[nH]c(Nc3ccc(CC(=O)O)cc3)nc12 | 385 to 387 °C |
| COC(=O)C(=NO)c1cc(Cl)nc(NC=O)n1 | 110 to 112 °C |
| O=C(N[C@@H](Cc1ccccc1)C(=O)NC(O)C(=O)O)OCc1ccccc1 (some centres not stated) | 117 to 127 °C |
| CCOC(=O)c1nc2c(=O)[nH]c3cc(F)ccc3n2c1C | > 250 °C |
| CC(C)[C@H](NC(=O)N(C)Cc1ccccn1)C(=O)N[C@@H](Cc1ccccc1)C[C@H](O)[C@H](Cc1ccccc1)NC(=O)[C@@H](NC(=O)N(C)Cc1ccccn1)C(C)C | 92 to 96 °C |
| COCc1cc(OC)c(-c2ccc(C[C@H](NC(=O)c3c(F)cccc3Cl)C(=O)O)cc2)c(OC)c1 | 170 to 175 °C |
| CC1(C)Oc2c([N+](=O)[O-])ccc(Cl)c2C1Br (configuration not stated) | 103 to 104 °C |
| O=C(O)c1ccc2c(c1)Sc1ccccc1S2 | 220 °C |
| CC1SC(=O)NN=C1c1ccc2c(c1)CCCN2C(=O)c1ccc2c(c1)OCO2 (single isomer, unassigned; (-)) | 180 °C |

| Compound | melting point |
| --- | --- |
| Cn1ncc(NCCCN2CCC(c3noc4cc(F)ccc34)CC2)cc1=O | 163 to 165 °C |
| COc1ccc2c(Cc3c(Cl)cncc3Cl)nnc(-n3ccnc3)c2c1 | > 250 °C |
| COc1ccccc1N(CCN1CCC(C(=O)c2ccc(F)cc2)CC1)C(=O)c1ccc(C#N)cc1 | 155 to 158 °C |
| Cc1cnc(N)c(=O)n1C | 217 to 219 °C |
| O=C(NN1CCCCC1)c1nn(-c2ccccc2-c2ccccc2Cl)c2c1C1CC3CC(C1)CC2C3 | 206 °C |
| NC(=O)Cc1cc(Oc2ccc3c(ccn3C(=O)Nc3ccc(N4CCN(C5CC5)CC4)c(C(F)(F)F)c3)c2)ncn1 | 236 to 240 °C |
| CCOC(=O)c1c(CCc2ccc(C(F)(F)F)cc2)nc2c(c1-c1ccc(C(=O)N[C@@H](C)c3ccncc3)cc1)C(=O)N1CCC[C@@H]21 | 158 to 160 °C |
| Cn1c2cc(OCC(O)CO)ccc2c2c3c(c(-c4ccccc4Cl)cc21)C(=O)NC3=O (configuration not stated) | 287 to 290 °C |
| Nc1cc(Cl)nc(Cl)c1[N+](=O)[O-] | 136 to 138 °C |
| CCOC(=O)c1cc(O)c2c(OC(C)C)ccc(Br)c2c1 | 106 °C |
| Oc1ccc2cc(-c3cnc(-c4ccccc4)o3)ccc2c1 | 235 to 238 °C |
| O=C(O)c1cnc(-c2ccc(NC(=O)C(Cl)Cl)cc2)nc1O | > 310 °C |
| C=C(C)COc1cc(C)c2c(c1C)CC(C)(C)N2C=O | 83 to 95 °C |
| CCOC(=O)c1ncn2c1cnc1ccccc12 | 195 to 196 °C |
| CS(=O)c1ncc(Cl)cn1 (configuration not stated) | 48 °C |
| N#Cc1cc(-c2ccc(Cl)cc2)nc(Oc2ccc(F)c(C(F)(F)F)c2)n1 | 131 to 132 °C |
| C[Si](C)(C)CCOCn1cc(C#N)c(=O)c2cc(N)c(N)cc21 | > 300 °C |
| Cc1c(C#N)sc2nc(-c3ccc4c(c3)OCO4)nc(N(C)CCO)c12 | 195 to 197 °C |
| Cc1cn(C)c2cc(C(F)(F)F)c(O)cc12 | 256 °C |
| CCOc1nc2ncnn2c2c1cnc1c2cnn1CC | 196 to 197 °C |
| Fc1ccc(C=Cc2nc(CNc3ccc(CCCCn4ccnn4)cc3)co2)c(C(F)(F)F)c1 | 109 to 111 °C |
| CC(C)Sc1sc(C(=O)N2CCCC2)c2c1-c1oncc1C(C)(C)C2 | 88 to 91 °C |
